Results as given in PMC2289263 (The Journal of Cell Biology, 1992).

Experiments:
[1] = system: B16-F10, A549, rabbit smooth muscle and bovine aortic endothelial cells; assay: Cell adhesion assay, summary over the four cell types of Table II; type: cell-based; settings: for Cell attachment compared to TSP, range over four cell types: text summary of Table II
[2] = system: B16-F10 mouse melanoma cells in C57BL/6 mouse; assay: Tumor cell metastasis assay; type: in vivo; settings: compared with buffer control
Heparin binding activity = settings: data not shown
human platelets = assay: ADP-induced platelet aggregation in platelet-rich plasma; type: cell-based; settings: ADP for 5 min, 500 ug/ml peptide; buffer control more than 1,000 per clump
[3] = Oxidative stability of peptide in solution; type: physicochemical

ANKHYF [reference compound]
Cell adhesive activity (in words) [1]: little or no significant cell adhesive activity
Effect on lung tumor colony formation (in words) [2]: no significant effect

TCVCGS [reference compound]
Cell adhesive activity (in words) [1]: little or no significant cell adhesive activity
Effect on lung tumor colony formation (in words) [2]: no significant effect

CRVTCG
Heparin binding activity (Heparin binding activity): possessed heparin binding activity

Cyclic CSVTCG (disulfide)
Cell adhesive activity (in words) [1]: approximately to the same extent as CSVTCG

TSP: 450,000-dalton glycoprotein secreted by platelets, purified from activated platelets
Number of adherent cells representing 100% adhesion ([1]; TSP-coated microtiter wells): 500 adherent cells per min'

VCTGSC [reference compound]
Cell adhesive activity (in words) [1]: little or no significant cell adhesive activity

CSTSCR
Cell attachment compared to TSP, range over four cell types [1]: 39-104%

CSVTCR
Cell attachment compared to TSP, range over four cell types [1]: 90-159%

CSVTCG
Cell attachment compared to TSP, range over four cell types [1]: 29-49%
Heparin binding activity (Heparin binding activity): did not
Platelets per clump (human platelets): 10-50 platelets per clump
Oxidation in solution (in words) ([3]; multimers with apparent molecular weights of 2,000 on SDS-gels): slowly oxidized in solution
Time for which freshly prepared solutions were stable ([3]; peptide in solution, oxidation of cysteine thiols): at least 2 h
